Experimental data as given in PubChem BioAssay (NCI).
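These data come from cells grown in 96-well plates and exposed to compound for 48 hours at five concentrations. Abbreviation: GI50, concentration required for 50% inhibition of growth. At the TGI there is no net growth.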

Tests used:
Experiment in all cases: inhibition of tumour cell growth, NCI panel, 48 h
UACC-62 melanoma = test system: UACC-62 melanoma
MALME-3M melanoma = test system: MALME-3M melanoma
IGROV1 ovarian = test system: IGROV1 ovarian
MCF7 breast = test system: MCF7 breast
U251 CNS = test system: U251 CNS
RXF 393 renal = test system: RXF 393 renal
LOX IMVI melanoma = test system: LOX IMVI melanoma
NCI-H460 lung = test system: NCI-H460 lung
CAKI-1 renal = test system: CAKI-1 renal
786-0 renal = test system: 786-0 renal
SK-OV-3 ovarian = test system: SK-OV-3 ovarian
COLO 205 colon = test system: COLO 205 colon
HT29 colon = test system: HT29 colon
HL-60(TB) leukemia = test system: HL-60(TB) leukemia
OVCAR-8 ovarian = test system: OVCAR-8 ovarian
HOP-62 NSCLC = test system: HOP-62 NSCLC
SK-MEL-5 melanoma = test system: SK-MEL-5 melanoma
OVCAR-4 ovarian = test system: OVCAR-4 ovarian
T-47D breast = test system: T-47D breast
UACC-257 melanoma = test system: UACC-257 melanoma
PC-3 prostate = test system: PC-3 prostate
SF-268 CNS = test system: SF-268 CNS
K-562 leukemia = test system: K-562 leukemia
MDA-MB-468 breast = test system: MDA-MB-468 breast
HCT-15 colon = test system: HCT-15 colon
A498 renal = test system: A498 renal
MOLT-4 leukemia = test system: MOLT-4 leukemia
MDA-MB-435 = test system: MDA-MB-435
NCI-H522 lung = test system: NCI-H522 lung
BT-549 breast = test system: BT-549 breast
KM12 colon = test system: KM12 colon
NCI-H226 lung = test system: NCI-H226 lung
HCC-2998 colon = test system: HCC-2998 colon
A549 NSCLC = test system: A549 NSCLC
SR leukemia = test system: SR leukemia
SNB-19 CNS = test system: SNB-19 CNS
HOP-92 NSCLC = test system: HOP-92 NSCLC
SN12C renal = test system: SN12C renal
RPMI-8226 leukemia = test system: RPMI-8226 leukemia
DU-145 prostate = test system: DU-145 prostate
TK-10 renal = test system: TK-10 renal
HS 578T breast = test system: HS 578T breast
OVCAR-3 ovarian = test system: OVCAR-3 ovarian
SK-MEL-28 melanoma = test system: SK-MEL-28 melanoma
SF-539 CNS = test system: SF-539 CNS
CCRF-CEM leukemia = test system: CCRF-CEM leukemia
OVCAR-5 ovarian = test system: OVCAR-5 ovarian
SF-295 CNS = test system: SF-295 CNS
ACHN renal = test system: ACHN renal
SW-620 colon = test system: SW-620 colon
NCI-H23 lung = test system: NCI-H23 lung
NCI/ADR-RES ovarian = test system: NCI/ADR-RES ovarian

O=C(Nc1cc(Cl)cc(Cl)c1)Nc1cc(Cl)cc(Cl)c1
GI50 (UACC-62 melanoma): 2.48 µM | TGI (UACC-62 melanoma): 14.3 µM | GI50 (MALME-3M melanoma): 1.92 µM | TGI (MALME-3M melanoma): 5.13 µM | GI50 (IGROV1 ovarian): 3.52 µM | TGI (IGROV1 ovarian): > 100 µM | GI50 (MCF7 breast): 2.28 µM | TGI (MCF7 breast): 7.37 µM | GI50 (U251 CNS): 2.75 µM | TGI (U251 CNS): 11.5 µM | GI50 (RXF 393 renal): 2.56 µM | TGI (RXF 393 renal): 8.66 µM | GI50 (LOX IMVI melanoma): 2.1 µM | TGI (LOX IMVI melanoma): 4.54 µM | GI50 (NCI-H460 lung): 2.11 µM | TGI (NCI-H460 lung): > 100 µM | GI50 (CAKI-1 renal): 2.79 µM | TGI (CAKI-1 renal): > 100 µM | GI50 (786-0 renal): 3 µM | TGI (786-0 renal): > 100 µM | GI50 (SK-OV-3 ovarian): 2.4 µM | TGI (SK-OV-3 ovarian): 6.31 µM | GI50 (COLO 205 colon): 1.99 µM | TGI (COLO 205 colon): 3.5 µM | GI50 (HT29 colon): 2.88 µM | TGI (HT29 colon): 14.9 µM | GI50 (HL-60(TB) leukemia): 1.57 µM | TGI (HL-60(TB) leukemia): 4.07 µM | GI50 (OVCAR-8 ovarian): 2.9 µM | TGI (OVCAR-8 ovarian): > 100 µM | GI50 (HOP-62 NSCLC): 2.61 µM | TGI (HOP-62 NSCLC): 8.74 µM | GI50 (SK-MEL-5 melanoma): 1.74 µM | TGI (SK-MEL-5 melanoma): 3.28 µM | GI50 (OVCAR-4 ovarian): 3.54 µM | TGI (OVCAR-4 ovarian): > 100 µM | GI50 (T-47D breast): 3.04 µM | TGI (T-47D breast): > 100 µM | GI50 (UACC-257 melanoma): 2.35 µM | TGI (UACC-257 melanoma): 6.42 µM | GI50 (PC-3 prostate): 2.42 µM | TGI (PC-3 prostate): > 100 µM | GI50 (SF-268 CNS): 3.31 µM | TGI (SF-268 CNS): > 100 µM | GI50 (K-562 leukemia): 2.5 µM | TGI (K-562 leukemia): 12.8 µM | GI50 (MDA-MB-468 breast): 2.27 µM | TGI (MDA-MB-468 breast): 6.48 µM | GI50 (HCT-15 colon): 2.18 µM | TGI (HCT-15 colon): > 100 µM | GI50 (A498 renal): 2.24 µM | TGI (A498 renal): 6.51 µM | GI50 (MOLT-4 leukemia): 1.82 µM | TGI (MOLT-4 leukemia): 4.42 µM | GI50 (MDA-MB-435): 3.11 µM | TGI (MDA-MB-435): > 100 µM | GI50 (NCI-H522 lung): 1.23 µM | TGI (NCI-H522 lung): 5.22 µM | GI50 (BT-549 breast): 2.45 µM | TGI (BT-549 breast): 7.85 µM | GI50 (KM12 colon): 2.97 µM | TGI (KM12 colon): 9.44 µM | GI50 (NCI-H226 lung): 2.95 µM | TGI (NCI-H226 lung): > 100 µM | GI50 (HCC-2998 colon): 3.13 µM | TGI (HCC-2998 colon): > 100 µM | GI50 (A549 NSCLC): 2.02 µM | TGI (A549 NSCLC): > 100 µM | GI50 (SR leukemia): 1.72 µM | TGI (SR leukemia): 4.1 µM | GI50 (SNB-19 CNS): 3.05 µM | TGI (SNB-19 CNS): > 100 µM | GI50 (HOP-92 NSCLC): 1.99 µM | TGI (HOP-92 NSCLC): 6.02 µM | GI50 (SN12C renal): 2.66 µM | TGI (SN12C renal): 9.92 µM | GI50 (RPMI-8226 leukemia): 0.861 µM | TGI (RPMI-8226 leukemia): 3.97 µM | GI50 (DU-145 prostate): 3.89 µM | TGI (DU-145 prostate): > 100 µM | GI50 (TK-10 renal): 3.27 µM | TGI (TK-10 renal): > 100 µM | GI50 (HS 578T breast): 2.69 µM | TGI (HS 578T breast): 8.47 µM | GI50 (OVCAR-3 ovarian): 2.92 µM | TGI (OVCAR-3 ovarian): > 100 µM | GI50 (SK-MEL-28 melanoma): 2.75 µM | TGI (SK-MEL-28 melanoma): > 100 µM | GI50 (SF-539 CNS): 2.26 µM | TGI (SF-539 CNS): 6.07 µM | GI50 (CCRF-CEM leukemia): 2.55 µM | TGI (CCRF-CEM leukemia): 8.04 µM | GI50 (OVCAR-5 ovarian): 2.91 µM | TGI (OVCAR-5 ovarian): > 100 µM | GI50 (SF-295 CNS): 1.74 µM | TGI (SF-295 CNS): 4.4 µM | GI50 (ACHN renal): 2.75 µM | TGI (ACHN renal): > 100 µM | GI50 (SW-620 colon): 3.4 µM | TGI (SW-620 colon): > 100 µM | GI50 (NCI-H23 lung): 1.86 µM | TGI (NCI-H23 lung): 5.55 µM | GI50 (NCI/ADR-RES ovarian): 2.17 µM | TGI (NCI/ADR-RES ovarian): 8.41 µM
